Tests used:
parkinsonian monkeys = conditions: Neurology, 52, 1673-1677 (1999); cited from earlier work
[1] = system: patients with moderate to severe RLS; assay: Human clinical trial, RLS treatment with an A2A antagonist (IRLSRS total score and total PLMS index by polysomnography); type: in vivo; conditions: 80 mg once a day for 6 weeks
Experimental: In order to assess the efficacy of a representative A2A antagonist in treating RLS, a clinical trial was initiated and conducted in accordance with standard procedures. Briefly, the total score in International RLS Rating Scale (IRLSRS) and total PLMS index (polysomnography; PLMS index represents the number of periodic limb movements per hour of sleep) of the patients were measured to evaluate the efficacy of Compound A in RLS [Understanding and Diagnosing Restless Legs Syndrome (2003), Restless Legs Syndrome Foundation, 819 Second Street, SW Rochester, Minn. 55902].
Scoring for IRLSRS was made according to the following Instructions for Examiner (Maximum IRLSRS total score is 40).
The Examiner was instructed to have the patient rate his/her symptoms for the following ten questions. The patient and not the examiner made the ratings, but the examiner was available to clarify any misunderstandings the patient may have had about the questions. Either the examiner or the patient marked the answers on the form. In questions 1, 2, 4, 5, 6, 9 and 10, the following scoring was used: (4) Very severe; (3) Severe; (2) Moderate; (1) Mild; and (0) None.
Patients diagnosed with idiopathic RLS were withheld from the medication from the time of screening until the end of treatment. After tapering all RLS medications, patients were screened for eligibility. At Week −2, patients were admitted to the clinic on the night preceding the visit day to be adapted to the sleep environment of the laboratory. After screening, IRLSRS total score and total PLMS index of the patients were measured on Day −1 in order to establish a baseline and to assess the range of RLS fluctuation. Only patients with moderate to severe RLS (15 and more IRLSRS total scores) were enrolled in the study.
Treatment with Compound A (80 mg, once a day) began on the day following Day −1 visit and continued for the next 6 weeks. The last dose of Compound A was taken on the day of Week 6 visit. At Week 8, patients received RLS assessments (IRLSRS total score and total PLMS index). The inhibition ratio for each score was calculated by the following equation. Inhibition Ratio(%)={[(Score at Day−1)−(Score at Week 8)]/(Score at Day−1)}×100

[2] = system: patients with advanced Parkinson's disease; animal models; conditions: animal models and early Phase II studies in patients with advanced Parkinson's disease; cited from earlier work
[3] = Week 8 vs Day-1 baseline, N = 4

| SMILES | Hyperactivity and dyskinesia (parkinsonian monkeys) | IRLSRS Total Score, Inhibition Ratio [1, 3] | Total PLMS Index, Inhibition Ratio [1, 3] | IRLSRS Total Score, Week 8, mean (SD) ([1]; assessed at Week 8, N = 4, baseline (Day-1) 32.5 (4.39), maximum score 40) | Total PLMS Index, Week 8, mean (SD) ([1]; assessed at Week 8, N = 4, baseline (Day-1) 45 (15.41), periodic limb movements per hour of sleep) | Effect on RLS symptoms ([1]; patients with moderate to severe RLS) | Amelioration of Parkinsonian symptoms [2] |
| --- | --- | --- | --- | --- | --- | --- | --- |
| CCn1c(=O)c2c(nc(/C=C/c3ccc(OC)c(OC)c3)n2C)n(CC)c1=O [KW-6002] | without producing hyperactivity and provoking dyskinesia |  |  |  |  |  |  |
| CCn1c(=O)c2c(nc(/C=C/c3ccc(OC)c(OC)c3)n2C)n(CC)c1=O [Compound A, (E)-8-(3,4-dimethoxystyryl)-1,3-diethyl-7-methylxanthine] |  | 29.2% | 45.2% | 23 (8.04) | 24.67 (23.89) | relief of RLS symptoms and improvement | efficacious in ameliorating Parkinsonian symptoms |

From patent US7759355B2, “Adenosine A2A receptor antagonists for treating restless legs syndrome or nocturnal myoclonus” (Kyowa Hakko Kirin Co., Ltd., priority 2002, dated 2010)
